Columns and labels:
the trypanosome = settings: cited from earlier work
[1] = system: binding of mAb T54E10 to the n-butanol species; test: ELISA inhibition-binding study, mAb T54E10 on n-butanol fraction GPI species; parameters: species or system mouse
Procedure: The GPI species of the n-butanol fraction were coated on microtiter wells at a coat concentration which corresponds to 10^6 tachyzoites per well. […] Ethanolamine (10 mM) itself was able to inhibit the binding of mAb T54E10 by 50%. All other compounds tested were not able to inhibit the binding of the monoclonal antibody. However, the binding of human anti-Toxoplasma antibodies was not affected by any of the compounds tested.
FIG. 6: Inhibition ELISA: Inhibition ELISA using glycolipids contained in the butanol phase as antigen and mAb T54E10

SMILES: CCCOCCCCCCCCCC(=O)O [10-(propoxy) decanoic acid]
- Toxicity to the trypanosome (the trypanosome): selective toxicity

SMILES: NCCOP(=O)(O)O [ethanolamine-phosphate]
- Inhibition of binding of mAb T54E10 to n-butanol species ([1]; coat corresponding to 10^6 tachyzoites per well, FIG. 6): inhibited

SMILES: NCCO [Ethanolamine]
- Inhibition of the binding of mAb T54E10 ([1]; 10 mM): 50%

Reference: patent US20020058288A1, “TOXOPLASMA GONDII GLYCOCONJUGATES” (priority 1995, published 2002)
